Reference: patent publication US8945540B2, “Compositions for enhancing the antibacterial activity of myeloperoxidase and methods of use thereof” (Exoxemis, Inc., priority 2008, dated 2015)
Where two headings read alike, the source gives them in different places.

Legend:
Staphylococcus aureus [1] = assay: Microbicidal activity of the myeloperoxidase system (p-MPO, glucose oxidase, glucose) with amino acids in the presence of blood, CFU plate counts; synergy determination from these CFU; assay type: cell-based; conditions: for Average Viability CFU/ml 50 min / Log Reduction 50 min: MPO 4.7 U/ml, GO 4.2 U/ml
Summary of the method: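 Microbicidal activity of the MPO–glucose oxidase–glucose system against S. aureus with amino acids was assessed in 3% whole blood. Reactions of 1 mL were run at room temperature or 37° C and stopped with catalase. Surviving CFU were counted on trypticase soy agar. For each pair, Actual CFU was divided by Predicted CFU and multiplied by 100. This value was compared with variability-based thresholds to classify synergism, antagonism or additivity.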

Staphylococcus aureus [2] = assay: Control: microbicidal activity of the amino acid or analogue alone (no glucose, MPO, glucose oxidase) in the presence of blood; assay type: cell-based; conditions: for log reduction at 5000 µM: Staphylococcus aureus, 1 h, read-out: Log Reduction 60 min
Source text: As a control to determine the microbicidal activity of the amino acids alone, the foregoing procedure was followed without replication, except in the absence of glucose, MPO, and glucose oxidase.

[3] = Table 7, amino acid analogue 5 mM, MPO 38 U/ml, GO 33.3 U/ml, blood
[4] = amino acid analogue alone 5 mM, MPO 0, GO 0, no glucose, blood
[5] = MPO 100 μg/mL, AA 20 mM, 30 min
[6] = MPO 100 μg/mL, AA 20 mM, 60 min
[7] = Table 3, amino acid 5 mM (none: 0 mM), MPO 38 U/ml, GO 33.3 U/ml, blood
[8] = Table 10, single amino acid 2.5 mM, in the presence of blood, 50 min
[9] = Table 13, single amino acid 2.5 mM, in the presence of blood, 50 min
[10] = Table 14, single amino acid 2.5 mM, in the presence of blood, 50 min
[11] = amino acid alone 5 mM, MPO 0, GO 0, no glucose, blood, without replication
[12] = Table 5, amino acid 5 mM (none: 0 mM), MPO 38 U/ml, GO 33.3 U/ml, blood
[13] = Table 11, single amino acid 2.5 mM, in the presence of blood, 50 min
[14] = Table 19, amino acid (racemic, L- or D-form) 2.5 mM, 50 min
[15] = Table 4, amino acid 5 mM (none: 0 mM), MPO 38 U/ml, GO 33.3 U/ml, blood
[16] = Table 2, amino acid 5 mM (none: 0 mM), MPO 38 U/ml, GO 33.3 U/ml, blood
[17] = Table 19, amino acid 3.5 mM, 50 min
[18] = single amino acid 2.5 mM, blood

Compound | Log 10 (CFU + 1) Survivors (Staphylococcus aureus [1]; MPO 25 μg/mL, AA 5 mM, 30 min) | Log 10 (CFU + 1) Survivors (Staphylococcus aureus [1]; MPO 25 μg/mL, AA 5 mM, 60 min) | Log 10 (CFU + 1) Survivors (Staphylococcus aureus [1]; MPO 25 μg/mL, AA […], 30 min) | Log 10 (CFU + 1) Survivors (Staphylococcus aureus [1]; MPO 25 μg/mL, AA […], 60 min) | Log 10 (CFU + 1) Survivors (Staphylococcus aureus [1]; MPO 100 μg/mL, AA 5 mM, 30 min) | Log 10 (CFU + 1) Survivors (Staphylococcus aureus [1]; MPO 100 μg/mL, AA 5 mM, 60 min) | Log 10 (CFU + 1) Survivors (Staphylococcus aureus [1]; [5]) | Log 10 (CFU + 1) Survivors (Staphylococcus aureus [1]; [6]) | Average Viability CFU/ml 50 min (Staphylococcus aureus [1]; [8]) [CFU/ml] | Log Reduction 50 min (Staphylococcus aureus [1]; [8]) | Average Viability CFU/ml 50 min (Staphylococcus aureus [1]; [10]) [CFU/ml] | Log Reduction 50 min (Staphylococcus aureus [1]; [10]) | log reduction at 5000 µM (Staphylococcus aureus [2]) | Average Viability CFU/ml 60 min (Staphylococcus aureus [2]; [11]) [CFU/ml] | Average Viability CFU/ml 50 min (Staphylococcus aureus [1]; [13]) [CFU/ml] | Log Reduction 50 min (Staphylococcus aureus [1]; [13]) | log reduction at 5000 µM (Staphylococcus aureus [2]; [11]) | also measured
Cl.NCC(N)C(=O)O (racemic) [DL-2,3-Diaminopropionic acid monohydrochloride] |  |  |  |  |  |  |  |  |  |  |  |  |  |  |  |  |  | Average Viability CFU/ml 60 min (Staphylococcus aureus [1]; [3]): 0 CFU/ml; Log Reduction 60 min (Staphylococcus aureus [1]; [3]): 7.4; log reduction at 5000 µM (Staphylococcus aureus [2]; [4]): 0; Average Viability CFU/ml 60 min (Staphylococcus aureus [2]; [4]): 20600000 CFU/ml
O=C(O)[C@@H]1C[C@@H](O)CN1 [L-Hydroxyproline] | 7.3 | 7.3 | 7.4 | 6.1 | 7.2 | 0.9 | 7.2 | 7.3 | 13100000 | 0.3 | 11550000 | 0.4 | 0 | 20400000 |  |  |  | Average Viability CFU/ml 60 min (Staphylococcus aureus [1]; [7]): 0 CFU/ml; Log 10 (CFU + 1) Survivors 60 min (Staphylococcus aureus [1]; [7]): 0.0; Log Reduction 60 min (Staphylococcus aureus [1]; [7]): 7.3; Average Viability CFU/ml 50 min (Staphylococcus aureus [1]; [9]): 11450000 CFU/ml; Log Reduction 50 min (Staphylococcus aureus [1]; [9]): 0.3
O=C(O)C1CCCNC1 (centres unmarked) [Nipecotic acid] |  |  |  |  |  |  |  |  |  |  |  |  | 0 |  |  |  |  | Log Reduction 60 min (Staphylococcus aureus [1]; [3]): 7.4
N[C@H](Cc1ccccc1)C(=O)O [D-Phenylalanine] | 5.1 | 0.0 | 7.2 | 4.9 | 0.0 | 0.0 | 0.0 | 0.0 | 7950000 | 0.5 | 7950000 | 0.5 |  | 24200000 | 9300000 | 0.5 | 0 | Average Viability CFU/ml 60 min (Staphylococcus aureus [1]; [12]): 0 CFU/ml; Log Reduction 60 min (Staphylococcus aureus [1]; [12]): 7.4; Average Viability CFU/ml 50 min (Staphylococcus aureus [1]; [9]): 8850000 CFU/ml; Log Reduction 50 min (Staphylococcus aureus [1]; [9]): 0.4; Average Viability CFU/ml 50 min (Staphylococcus aureus [1]; [14]): 8700000 CFU/ml; Log Reduction 50 min (Staphylococcus aureus [1]; [14]): 0.5
CNCC(=O)OC.Cl [Sarcosine methyl ester hydrochloride] |  |  |  |  |  |  |  |  |  |  |  |  |  |  |  |  |  | Average Viability CFU/ml 60 min (Staphylococcus aureus [1]; [3]): 0 CFU/ml; Log Reduction 60 min (Staphylococcus aureus [1]; [3]): 7.4; log reduction at 5000 µM (Staphylococcus aureus [2]; [4]): 0; Average Viability CFU/ml 60 min (Staphylococcus aureus [2]; [4]): 23200000 CFU/ml
NCCCC[C@@H](N)C(=O)O [D-Lysine] |  |  |  |  |  |  |  |  |  |  |  |  | 0 | 25100000 |  |  |  | Average Viability CFU/ml 60 min (Staphylococcus aureus [1]; [15]): 5050000 CFU/ml; Log Reduction 60 min (Staphylococcus aureus [1]; [15]): 0.7
N[C@@H](CO)C(=O)O [L-Serine] | 5.0 | 0.0 | 6.8 | 1.8 | 5.0 | 0.0 | 5.8 | 0.0 | 1175000 | 1.3 | 940000 | 1.5 |  | 24100000 |  |  | 0 | Average Viability CFU/ml 60 min (Staphylococcus aureus [1]; [16]): 0 CFU/ml; Log 10 (CFU + 1) Survivors 60 min (Staphylococcus aureus [1]; [16]): 0.0; Log Reduction 60 min (Staphylococcus aureus [1]; [16]): 7.4; Average Viability CFU/ml 50 min (Staphylococcus aureus [1]; [9]): 835000 CFU/ml; Log Reduction 50 min (Staphylococcus aureus [1]; [9]): 1.5
N[C@@H](Cc1ccccc1)C(=O)O [L-Phenylalanine] | 7.1 | 0.0 | 7.0 | 4.9 | 0.0 | 0.0 | 0.0 | 0.0 | 10550000 | 0.4 | 12050000 | 0.3 |  | 22400000 | 11100000 | 0.4 | 0 | Average Viability CFU/ml 60 min (Staphylococcus aureus [1]; [16]): 0 CFU/ml; Log 10 (CFU + 1) Survivors 60 min (Staphylococcus aureus [1]; [16]): 0.0; Log Reduction 60 min (Staphylococcus aureus [1]; [16]): 7.4; Average Viability CFU/ml 50 min (Staphylococcus aureus [1]; [17]): 11200000 CFU/ml; Log Reduction 50 min (Staphylococcus aureus [1]; [17]): 0.4
N[C@H](CO)C(=O)O [D-Serine] | 6.8 | 6.5 | 6.7 | 6.0 | 6.0 | 0.0 | 6.0 | 3.9 |  |  |  |  |  | 23100000 | 945000 | 1.5 | 0 | Average Viability CFU/ml 60 min (Staphylococcus aureus [1]; [12]): 0 CFU/ml; Log Reduction 60 min (Staphylococcus aureus [1]; [12]): 7.4
N=C(N)NCCC[C@@H](N)C(=O)O [D-Arginine] | 6.9 | 6.7 | 7.0 | 5.9 | 6.9 | 0.0 | 7.0 | 6.8 | 14200000 | 0.2 | 15000000 | 0.3 | 0.1 | 21500000 | 14650000 | 0.3 |  | Average Viability CFU/ml 60 min (Staphylococcus aureus [1]; [12]): 0 CFU/ml; Log Reduction 60 min (Staphylococcus aureus [1]; [12]): 7.4; enhancement of MPO microbicidal activity (in words) (Staphylococcus aureus [1]; amino acid 5 mM, MPO 38 U/ml, GO 33.3 U/ml, blood): highly active
O=C(O)[C@H]1CCCN1 [D-Proline] | 6.9 | 2.4 | 7.3 | 3.7 | 5.7 | 2.7 | 4.8 | 0.0 |  |  |  |  |  | 21400000 | 1890000 | 1.2 | 0.1 | Average Viability CFU/ml 60 min (Staphylococcus aureus [1]; [15]): 830 CFU/ml; Log Reduction 60 min (Staphylococcus aureus [1]; [15]): 4.5
CC[C@H](C)[C@H](N)C(=O)O [L-Isoleucine] | 0.0 | 0.0 | 2.1 | 0.0 | 0.0 | 0.0 | 0.0 | 0.0 | 159500 | 2.2 | 117000 | 2.4 |  | 20500000 | 155500 | 2.2 | 0 | Average Viability CFU/ml 60 min (Staphylococcus aureus [1]; [7]): 0 CFU/ml; Log 10 (CFU + 1) Survivors 60 min (Staphylococcus aureus [1]; [7]): 0.0; Log Reduction 60 min (Staphylococcus aureus [1]; [7]): 7.3; Average Viability CFU/ml 50 min (Staphylococcus aureus [1]; [17]): 129333 CFU/ml; Log Reduction 50 min (Staphylococcus aureus [1]; [17]): 2.3; Average Viability CFU/ml 50 min (Staphylococcus aureus [1]; [18]): 73000 CFU/ml; Log Reduction 50 min (Staphylococcus aureus [1]; [18]): 2.5
COC(=O)[C@@H]1CCCN1.Cl [L-Proline methyl ester hydrochloride] |  |  |  |  |  |  |  |  |  |  |  |  |  |  |  |  |  | Average Viability CFU/ml 60 min (Staphylococcus aureus [1]; [3]): 0 CFU/ml; Log Reduction 60 min (Staphylococcus aureus [1]; [3]): 7.4; log reduction at 5000 µM (Staphylococcus aureus [2]; [4]): 0; Average Viability CFU/ml 60 min (Staphylococcus aureus [2]; [4]): 23200000 CFU/ml
N[C@H](CCC(=O)O)C(=O)O [D-Glutamic acid] |  |  |  |  |  |  |  |  |  |  |  |  | 0 | 26200000 |  |  |  | Average Viability CFU/ml 60 min (Staphylococcus aureus [1]; [15]): 955000 CFU/ml; Log Reduction 60 min (Staphylococcus aureus [1]; [15]): 1.4
NC(=O)C[C@H](N)C(=O)O [L-Asparagine] |  |  |  |  |  |  |  |  |  |  |  |  |  | 21800000 |  |  | 0 | Average Viability CFU/ml 60 min (Staphylococcus aureus [1]; [7]): 5950000 CFU/ml; Log 10 (CFU + 1) Survivors 60 min (Staphylococcus aureus [1]; [7]): 6.8; Log Reduction 60 min (Staphylococcus aureus [1]; [7]): 0.6
N[C@H](Cc1c[nH]c2ccccc12)C(=O)O [D-Tryptophan] |  |  |  |  |  |  |  |  |  |  |  |  | 0.1 | 22600000 |  |  |  | Average Viability CFU/ml 60 min (Staphylococcus aureus [1]; [15]): 19700000 CFU/ml; Log Reduction 60 min (Staphylococcus aureus [1]; [15]): 0.1
